Reference: patent publication US10092621B2 (priority 2014, dated 2018)
Marks after values point to notes of the source that are not given here.

Columns and labels:
[1] = tested on: intensive care unit patients with severe septic shock; details: esmolol group; […] in the control group; cited from earlier work
[2] = tested on: patients with post-operative ileus; details: Phase 2, once daily dosing for up to 7 days; cited from earlier work
[3] = tested on: healthy volunteers; assay: Phase 1 MAD study: gastric emptying by scintigraphic imaging; type: in vivo, human; details: for Gastric Emptying Day 1 Improvement Over Baseline T25% / Gastric Emptying Day 1 Improvement Over Baseline T50%: single dose Day 1; for acceleration of liquid meal emptying (GET50) vs pre-dosing baseline: TID
Experimental: Healthy male and female volunteers aged 18 to 55 years participated in the trial. […] The doses studied were SAD: 600, 1200, and 900 μg/kg and MAD: 300, 150, and 80 μg/kg q8H for seven days.

[4] = tested on: healthy volunteers; assay: Phase 1 SAD/MAD study: growth hormone levels; type: in vivo, human; details: for GH level spike: 150 μg/kg TID
Experimental: A randomized, double-blind, placebo-controlled, single and multiple ascending IV dose (SAD and MAD), sequential-group study to assess the safety, tolerability, PK, and PD of ulimorelin in healthy subjects was initiated and conducted as follows.
Levels on Day 1 were meaningfully greater than those seen in placebo subjects at any timepoint (pooled placebo mean GH levels were 3.2 μg/L and ranged from about 0.1 to 11 μg/L). Over time, the spikes in GH levels diminished but remained measureable and within or slightly greater than the expected physiological range of the assay (0-0.8 μg/L for males and 0-8 μg/L for females).

[5] = tested on: diabetic gastroparesis patients; details: cited from earlier work

COC(=O)CCc1ccc(OCC(O)CNC(C)C)cc1 (centres unmarked) [esmolol]
twenty-eight day mortality [1]: 49.4%

ulimorelin
time to first bowel movement (BM) [2]: shortened time to first bowel movement | Gastric Emptying Day 4 Improvement Over Baseline T25% ([3]; 80 μg/kg q8H): 35% | Gastric Emptying Day 4 Improvement Over Baseline T50% ([3]; 80 μg/kg q8H): 26% | Gastric Emptying Day 1 Improvement Over Baseline T25% ([3]; 80 μg/kg): 30% | Gastric Emptying Day 1 Improvement Over Baseline T50% ([3]; 80 μg/kg): 14% | Gastric Emptying Day 4 Improvement Over Baseline T25% ([3]; 150 μg/kg q8H): 25% | Gastric Emptying Day 4 Improvement Over Baseline T50% ([3]; 150 μg/kg q8H): 23%* | Gastric Emptying Day 1 Improvement Over Baseline T25% ([3]; 150 μg/kg): 45%* | Gastric Emptying Day 1 Improvement Over Baseline T50% ([3]; 150 μg/kg): 34%* | Gastric Emptying Day 4 Improvement Over Baseline T25% ([3]; 300 μg/kg q8H): 31% | Gastric Emptying Day 4 Improvement Over Baseline T50% ([3]; 300 μg/kg q8H): 27%* | Gastric Emptying Day 1 Improvement Over Baseline T25% ([3]; 300 μg/kg): 54%* | Gastric Emptying Day 1 Improvement Over Baseline T50% ([3]; 300 μg/kg): 46%* | acceleration of liquid meal emptying (GET50) vs pre-dosing baseline ([3]; Day 1, both treatment groups): greater than 30% | acceleration of liquid meal emptying (GET50) vs pre-dosing baseline ([3]; Day 4, both treatment groups): > 20% | Mean Max GH ([4]; Female, 150 μg/kg, Day 1): 18.8 μ/L | Mean Max GH ([4]; Female, 150 μg/kg, Day 4): 10.7 μ/L | Mean Max GH ([4]; Female, 150 μg/kg, Day 7): 6.2 μ/L | Mean Max GH ([4]; Female, 300 μg/kg, Day 1): 41.5 μ/L | Mean Max GH ([4]; Female, 300 μg/kg, Day 4): 31.5 μ/L | Mean Max GH ([4]; Female, 600 μg/kg, Day 1): 77.9 μ/L | Mean Max GH ([4]; Female, 900 μg/kg, Day 1): 83.4 μ/L | Mean Max GH ([4]; Female, 1200 μg/kg, Day 1): 76.0 μ/L | Mean Max GH ([4]; Male, 150 μg/kg, Day 1): 11.4 µg/L | Mean Max GH ([4]; Male, 150 μg/kg, Day 4): 2.4 µg/L | Mean Max GH ([4]; Male, 150 μg/kg, Day 7): 1.7 µg/L | Mean Max GH ([4]; Male, 300 μg/kg, Day 1): 18.7 µg/L | Mean Max GH ([4]; Male, 300 μg/kg, Day 4): 4.0 µg/L | Mean Max GH ([4]; Male, 300 μg/kg, Day 7): 3.0 µg/L | Mean Max GH ([4]; Male, 600 μg/kg, Day 1): 41.7 µg/L | Mean Max GH ([4]; Male, 900 μg/kg, Day 1): 79.7 µg/L | Mean Max GH ([4]; Male, 1200 μg/kg, Day 1): 53.0 µg/L | Mean Max GH ([4]; Person, 300 μg/kg, Day 7, n = 1): 11.3* μ/L | GH level spike ([4]; females, Day 1): ~19 µg/L | GH level spike ([4]; males, Day 1): ~11 µg/L | gastric emptying ([5]; Phase 2, 10 patients with diabetic gastroparesis, 30 min IV infusion once daily): accelerated gastric emptying of solid and liquid food | GCSI scores ([5]; additional Phase 2 study of diabetic gastroparesis patients): improvements in GCSI Loss of Appetite and Vomiting scores
